Row | Compound | melting point
1 | O=C(N[C@@H](Cc1ccccc1)C(=O)N[C@H](CO)Cc1c[nH]c2ccccc12)OCc1ccccc1 | 154 to 156 °C
2 | Cc1cc(-c2cccs2)ccc1C(=O)c1cccc2c1Nc1ncccc1CN2 | 118 to 120 °C
3 | CCC(=O)NCc1ccc(NC(=O)/C=C/c2cnn(C)c2-c2ccc(F)cc2)cc1 | 271 to 272 °C
4 | COc1cccc(CC(=O)O)c1OCCCc1cn(-c2ccc(NC(C)=O)cn2)nc1C(C)C | 158 to 159 °C
5 | O=C(Nc1ccc(-n2nc(C(F)(F)F)cc2C(F)(F)F)cc1)C1CC1 | 204 to 205 °C
6 | Cc1ccc(C(=O)NCc2ccc(Br)cc2F)c(OCC(=O)O)c1 | 188 to 189 °C
7 | CCCCC(=O)c1sc(Oc2ccc3c(c2)OCO3)c2c1CCc1cnn(C)c1-2 | 101 to 102 °C
8 | Cc1cccc2[nH]c(Nc3ccc(C(=O)O)cc3)nc12 | 375 to 378 °C
9 | CNC1Cc2ccccc2C1Nc1ccc(Cc2ccccc2)cc1 (centres undefined) | 137 to 138 °C
10 | COC(=O)c1cc(I)cc(C)c1OC | 55 to 57 °C
11 | CNc1nc(Br)cnc1N | 121 °C
12 | COc1cc(N)c(S(C)(=O)=O)cc1C(=O)O | 178 to 180 °C
13 | CCCCc1nc2cc(C(=O)OC)ccc2n1Cc1ccc(-c2ccccc2-c2nnn[nH]2)cc1 | 134 to 136 °C
14 | Cn1cc2c([C@@H]3C[C@H]3CNC(=O)c3ccc(Br)cc3)cccc2n1 | 140 to 142 °C
15 | CCN1CCc2cc(Nc3ncc(Cl)c(Nc4ccccc4C(=O)NC)n3)c(OC)c(N)c2CC1 | 117 to 160 °C
16 | CC(C)(C)c1ccccc1N1CCN(C(=O)C2CCC(=O)N2Cc2ccccc2)CC1 (centres undefined) | 164 °C
17 | Cc1c(C2CCCC2)c(=O)oc2cc(OCc3nnn[nH]3)cc(OCc3nnn[nH]3)c12 | 248 to 252 °C
18 | CN1CCC(c2cccc3ccc(N)cc23)CC1 | 170 to 171 °C
19 | O=C(O)CCCC1Cc2ccc(F)cc2C1=O (centres undefined) | 106 to 107 °C
20 | CCc1c(CC)n(Cc2ccccc2Cl)c2cc(C(=O)OC)ccc12 | 86 to 88 °C
21 | COc1ccc2cccc(C(CNC(=O)CF)COS(C)(=O)=O)c2c1 (centres undefined) | 122 to 124 °C
22 | Oc1noc2ccc(F)cc12 | 201 to 203 °C
23 | C=CCOc1ccc(C(=O)C=Cc2cc(OC)ccc2OC)cc1 | 86 to 87 °C
24 | N#Cc1nn(-c2c(Cl)cc(C(F)(F)F)cc2Cl)cc1-c1cc(Br)no1 | 145 °C

Row | Compound | melting point
25 | CS(=O)(=O)c1ccc(C(=O)c2cnoc2C2CC2)c(Cl)c1 | 116 °C
26 | CC(C)(C)C(NC(=O)c1ccc(Cl)cc1)Nc1c(Nc2ccncc2)c(=O)c1=O (centres undefined) | 244 to 246 °C
27 | CC(C)CCNC(=O)c1ccc2c(c1)N(C(C)CN(C)C)c1ccccc1S2 (racemic) | 105 °C
28 | COc1cc(OC)c(C(=O)CC(=O)c2cc(OC)c(OC)c(OC)c2)cc1OC | 154 to 156 °C
29 | CC1CC(=O)N(c2ccccc2)c2cc(Cl)ccc2N1 (centres undefined) | 167 to 168 °C
30 | O=C(NCCCCCCOC(=O)N1CCC2(CCCC2)CC1)OC1CCN(C(=O)Oc2ccc(Oc3ccccc3)cc2)CC1 | 83 to 85 °C
31 | O=c1[nH]nc2n1C=Cc1cc(Cl)ccc1C2 | 281 to 283 °C
32 | Clc1ccc(CN2CC=C(/C=C/c3ccccc3)CC2)cc1Cl | 123 to 125 °C
33 | Cc1ccccc1S(=O)(=O)NC1CCc2sc(C3=NNC(=O)CC3)cc2C1 (centres undefined) | 204 to 206 °C
34 | O=S1(=O)NCN(C2CCCCC2)c2cc(Cl)ccc21 | 178 to 180 °C
35 | C=CCONC(=O)c1c([Si](C)(C)C)ccc(Cl)c1Cl | 92 to 94 °C
36 | Cc1cc(OCc2ccccc2)cc(C)c1CC(=O)OCc1ccccc1 | 62 to 64 °C
37 | CN1CC(CCCCN2CCN(c3ccccc3O)CC2)OC1=O (centres undefined) | 106 to 110 °C
38 | Cc1sc(-c2ccccc2)nc1COc1ccc(CCC[C@@H](O)C(=O)O)cc1 | 117 to 118 °C
39 | CCOc1ccccc1CN1CCC(=O)C(C(c2ccc(F)cc2)c2ccc(F)cc2)C1 (centres undefined) | 137 to 138 °C
40 | O=C(N[C@@H](Cc1ccc(OCc2ccsc2)cc1)C(=O)O)c1cn2cc(-c3ccc(Cl)cc3)ccc2n1 | 203 °C
41 | COc1ccc(C(=O)C2CCN(C(C)=O)CC2)c(OC)c1 | 132 to 134 °C
42 | CNC(=O)c1ccccc1Nc1nc(Nc2ccc3c(c2)CCN(CCF)CC3)ncc1Cl | 170 to 174 °C
43 | O=C(NCCNC(=O)C1CCNC1)OCc1ccccc1 (centres undefined) | 129 to 131 °C
44 | Brc1cccc(-c2cc3nccnc3[nH]2)c1 | 247 to 249 °C
45 | CCOC(=O)C1OC1C(=O)NCc1ccccc1 (centres undefined) | 90 to 91 °C
46 | CNc1cc(NS(=O)(=O)c2ccc(C)cc2)nc(NC)n1 | 270 to 272 °C
47 | COC(=O)c1ccc(NC(=O)c2cc(C(C)C)c(C(C)C)o2)cc1Cl | 123 to 124 °C

Continued, values first:

Row | melting point | Compound
48 | 121 to 123 °C | O=C(NC(C(=O)O)c1ccc2c(c1)CCO2)OCc1ccccc1 (centres undefined)
49 | 196 to 198 °C | O=CN(c1cc(Cl)cc(Cl)c1)c1cc(S(=O)(=O)NC(c2ccccc2)c2ccccc2)ccc1Cl
50 | 139 to 140 °C | O=C(NCCO)c1cccc(-c2cccc3cc(Cc4cc(F)cc(Cl)c4)sc23)n1
51 | 134 to 135 °C | O=C(O)CCC(O)c1ccc(-c2ccc(Cl)cc2)cc1 (centres undefined)
52 | 119 °C | CC(C)=CCn1c(N2CCC(N)C2)nc2c1c(=O)n(C)c(=O)n2C (centres undefined)
53 | 54 to 55 °C | Cc1cc2c(c3c1C(c1ccc(C(C)C)cc1)CO3)CCCC2 (centres undefined)
54 | 199 °C | CCc1nc2ncnn2c(N)c1CCCCC(F)=C(F)F
55 | 118 to 122 °C | COc1c(C(=O)O)ccc2ccccc12
56 | 178 to 179 °C | COc1cc(C2=CCCCC2)c(Cl)cc1C(=O)N1Cc2ccc(C(=O)N(C)Cc3cccnc3)n2Cc2ccccc21
57 | 72 to 74 °C | CC(=O)Nc1cc(F)c(OC(F)F)cc1[N+](=O)[O-]
58 | 177 to 179 °C | CCOC(=O)C(=O)CC(=O)c1cn(Cc2cccc(OC)c2)c2ccccc2c1=O
59 | 115 to 116 °C | CCOC(=O)c1cccc(-c2nc(-c3cc(C)sc3C)cs2)c1
60 | 108 to 110 °C | Cc1c(C)c2c(c(C)c1OCc1ccccc1)CC(CCN1C(=O)c3ccccc3C1=O)O2 (centres undefined)
61 | 195 to 197 °C | O=S(=O)(N=CN1CCOCC1)c1cc(Br)cc(Br)c1
62 | 96 to 102 °C | CCOC(=O)c1c[nH]c(C2CCN(CCC(CN(C)C(=O)c3ccccc3)c3ccc(Cl)c(Cl)c3)CC2)n1 (centres undefined)
63 | 111 to 113 °C | CSC1=Nc2cc(Cl)ccc2Nc2cscc21
64 | 50 to 58 °C | CC(=CC(NC=O)C(=O)OCc1ccccc1)CP(=O)(OC(C)C)OC(C)C (centres undefined)
65 | 65 to 69 °C | CN(CCCCCCNC(=O)NCCCOc1cccc(CN2CCCCC2)c1)CCN(Cc1ccc(F)cc1)c1ccccn1
66 | 218 to 221 °C | CC(=O)Nc1cnc(Br)c(N)n1
67 | 76 to 78 °C | O=[N+]([O-])c1cc(Cl)ncc1CCc1ccccc1
68 | 137 to 140 °C | CCOC(=O)NCC(=O)c1ccc(O)cc1
69 | 107 to 109 °C | NS(=O)(=O)OCCOc1cccc(OCc2ccccc2)c1
70 | 127 to 128 °C | O=C(O)Cc1ccc(OCCCc2cc(-c3ccc(C(F)(F)F)cc3)no2)cc1
71 | 288 to 290 °C | COC(=O)c1cc(F)c2ncc(C(=O)NCc3ccc(Cl)cc3)c(O)c2c1
72 | 143 to 144 °C | COC(=O)c1sc(-c2ccccc2)c(O)c1O
73 | 195 to 197 °C | O=C1NC(=O)C(Nc2cccc3ccccc23)S1 (centres undefined)

Row | melting point | Compound
74 | 158 to 159 °C | CCCc1c(CCC(=O)O)cnn1Cc1ccc(OCc2nc(-c3ccccc3)oc2C)cc1
75 | 60 to 61 °C | CC(=O)OC1C(c2ccccc2)=C(c2ccc(S(C)(=O)=O)cc2)C1(C)C (centres undefined)
76 | 63 to 90 °C | COc1cc2c(cc1Nc1ncc(Cl)c(Nc3ccccc3C(=O)OC(C)C)n1)CCN(CCCN(C)C)C(=O)C2
77 | 209 °C | Cc1ccc(S(=O)(=O)Cc2c(-c3ccc(Cl)cc3Cl)nn(C)c2O)cc1
78 | 189 to 190 °C | COc1ccc(-c2c(C(=O)O)n(Cc3cc4c(cc3Cl)OCO4)c3ccccc23)cc1
79 | 208 to 209 °C | CC(C)(C(=O)NCCC#N)c1ccc(C(=O)Nc2cn3cc(Cl)ccc3n2)cc1
80 | 249 to 251 °C | CCOC(=O)c1nc2ccc(Cl)cc2c(=O)[nH]1
81 | 207 to 210 °C | CNC(=O)c1ccccc1Nc1nc(Nc2ccc3c(c2)CCN(CC(C)(C)F)CC3)ncc1Cl
82 | 135 to 136 °C | COc1cc2ncnc(N3CCN(C(=O)NCc4ccc(C(C)C)cc4)CC3)c2cc1OC
83 | 290 °C | CN1Sc2ccccc2C(=O)C1C(=O)Nc1coc2ccccc2c1=O (centres undefined)
84 | 121 to 122 °C | O=C1CCN(Cc2cccnc2)CC1C(c1ccccc1)c1ccccc1 (centres undefined)
85 | 208 to 210 °C | C=C1OC(=NO)C(c2ccccc2)C(=O)N1C(C)(C)C(=O)Nc1cc(Cl)cc(Cl)c1 (centres undefined)
86 | 89 to 90 °C | COC(=O)COc1c(CCC(C)C)c(OC)cc(OC)c1C(=O)CCc1ccc(O)c(OC)c1
87 | 274 to 275 °C | O=c1c(-c2cccc(C(F)(F)F)c2)coc2cc(O)c(O)cc12
88 | 220 to 222 °C | N#Cc1c(N2CCCCC2)cc(-c2ccc3ccc4cccc5ccc2c3c45)c2c1-c1ccccc1C2=O
89 | 103 to 107 °C | CN1CCN(CCOc2ccc([C@H]3c4ccc(OCc5ccccc5)cc4OC[C@H]3c3ccccc3)cc2)CC1 (racemic)
90 | 170 °C | OC1CSC(Oc2ccc(-c3ccc(Cl)nc3)nc2)C(O)C1O (centres undefined)
91 | 203 to 205 °C | COc1ccc(Nc2nccc(-c3ccc(Cl)nc3)n2)cn1
92 | 72 to 73 °C | CC(C)(C)OC(=O)N1CCC(=Cc2ccc3ccccc3n2)CC1
93 | 205 to 208 °C | Cc1c(-c2cccs2)nn2cc[nH]c12
94 | 196 to 197 °C | Cc1[nH]n(C(C)(C)C)c2nc(Cc3ccccc3)nc(=O)c1-2
95 | 190 to 206 °C | CCc1nc2c(N)nc3ccccc3c2n1CC#Cc1ccc([N+](=O)[O-])cc1
96 | 65.5 to 66 °C | CCCCCCCCCCc1ccc2cc(O)c(SC)cc2c1
97 | 299 to 301 °C | Cc1nn(-c2cc3nc(S)sc3cc2F)c(=O)n1C
98 | 81 to 82 °C | CCOC(=O)c1c(COC(C)=O)cccc1S(=O)(=O)NC(C)(C)C
99 | 184 to 185 °C | Cn1ncc(N2CCCCC2)c(-c2ccccc2C=NO)c1=O

Source: a melting point compilation (Tetko et al.; mined from patent text by program, amines drawn as free bases though some values may be those of a salt)
